The test system of data set [1] is AA8. Briefly: cytotoxicity, 4 h aerobic drug exposure, AA8. Type of data set: cell-based, Chinese hamster. The settings on record: read-out: IC50 AA8.
Data set [2] has as its system SKOV3. Kind of data set: cytotoxicity, 4 h aerobic drug exposure, SKOV3. Type of data set: cell-based, human. Particulars: read-out: IC50 SKOV3.
Data set [3] relates to EMT6. Kind of data set: cytotoxicity, 4 h aerobic drug exposure, EMT6. Type of data set: cell-based, murine. Particulars: read-out: IC50 EMT6.
The test system of data set [4] is UV4 cell line. Briefly: cytotoxicity, 4 h aerobic drug exposure, UV4. Type of data set: cell-based, Chinese hamster. The settings on record: read-out: IC50 UV4.
In data set [5] the test system is panel of mammalian cell lines. Kind of data set: cytotoxicity in a panel of mammalian cell lines (summary in words). Particulars: summary of Table 2.
Data set [6] concerns HT29 cultures. Briefly: activation by endogenous enzymes under hypoxia (Table 4 and FIG. 2). Type of data set: cell-based. Particulars: summary of Table 4 and FIG. 2. The text has this:
(§1) The metal complexes also show an ability to be activated by endogenous enzymes under hypoxia, as shown for metal complex M1 in Table 4 and FIG. 2. […] Thus the metal complexes have utility as hypoxia- as well as radiation-activated cytotoxins.

Data set [7] concerns A549 wt/s. Kind of data set: cytotoxicity under oxic and anoxic conditions, A549 wt/s. Type of data set: cell-based, human. The settings on record: for IC50: Homo sapiens, A549, 4 h exposure. On the procedure: as §1
(§2) In Table 4, A549wt/s is a wild-type human […] carcinoma cell line, SKOV3 is a human ovarian cancer cell line and WiDr-2 is a clonal cell line derived from the WiDr human colon carcinoma line. IC50s (in μM are determined under both oxic and hypoxic conditions, and the hypoxic cytotoxicity ratio (HCR) is the average intra-experiment ratio of the IC50s measured under oxic and hypoxic conditions.

For data set [8], the system named is SKOV3. Kind of data set: cytotoxicity under oxic and anoxic conditions, SKOV3. Type of data set: cell-based, human. Particulars: for IC50: Homo sapiens, SK-OV-3, 4 h exposure. On the procedure: as §1, §2
The mark [9] stands for this setting: Cricetulus griseus, CHO-AA8, 4 h.
The mark [10] stands for this setting: 4 h aerobic exposure, mean ± sem.
The mark [11] stands for this setting: average intra-experiment ratio of IC50s oxic/hypoxic.

Results on eleven compounds are retold here after patent publication US7064117B2, “Anti-cancer 2,3-dihydro-1H-pyrrolo[3,2-f]quinoline complexes of cobalt and chromium” (Auckland Uniservices Limited, priority 2001, dated 2006).

Read-outs that look alike come from different tables or passages of the source. A value given as a limit tells only on which side of the number the result lay.

Consider `Oc1cccc2cccnc12` [Compound 8-HQ, 8-hydroxyquinoline, reference compound], for which the IC50 was determined as 2.07 ± 0.02 µM in [1] (setting [9]); 4.07 ± 0.89 µM in data set [2] (Homo sapiens, SK-OV-3, 4 h); 3.92 ± 1.04 µM in data set [3] (Mus musculus, EMT6, 4 h); 2.16 ± 0.12 µM in [4] (Cricetulus griseus, UV4, 4 h).
`COc1ccc(/C=C/C(=O)N2CC(CCl)c3c2cc(O)c2ncccc32)cc1` (centres unmarked): the melting point was 208 to 211 °C.
`Cl.Cl.Cl.Cl.O=S(=O)(O)CCCCN1CCNCCNCCNCC1`: the melting point was 301 to 303 °C.
The compound `COc1cc2cc(C(=O)N3CC(CCl)c4c3cc(N)c3ncccc43)[nH]c2c(OC)c1OC` (centres unmarked) [Compound 27, 5-Amino-1-(chloromethyl)-3-[(5,6,7-trimethoxyindol-2-yl)carbonyl]-2,3-dihydro-1H-pyrrolo[3,2-f]quinoline] showed a melting point of 258 to 263 °C. The IC50 in data set [1] (Cricetulus griseus, CHO-AA8, 4 h aerobic exposure, mean ± sem) was found to be 0.0079 ± 0.002 µM. Besides, in data set [2] (Homo sapiens, SK-OV-3, 4 h aerobic exposure, mean ± sem), the IC50 was found to be 0.012 ± 0.0023 µM. The IC50 in data set [3] (Mus musculus, EMT6, 4 h aerobic exposure, mean ± sem) was found to be 0.0026 ± 0.0005 µM. Besides, in data set [5], the cytotoxicity in words result is recorded as “exceptionally cytotoxic”. In data set [4] (Cricetulus griseus, UV4, 4 h aerobic exposure, mean ± sem), the IC50 was determined as 0.0029 ± 0.006 µM.
Turning to `COc1ccc(/C=C/C(=O)N2CC(CCl)c3c2cc(O)c2ncccc32)cc1O` (centres unmarked), the melting point is 215 to 218 °C.
As to `CN(C)CCOC1(O)C=CC2=NC(C(=O)N3CC(CCl)c4c3ccc3ncccc43)=CC2=C1` (centres unmarked), the melting point fell in the range of 176 to 179 °C.
On to `Cl.Cl.Cl.Cl.O=S(=O)(O)CCCN1CCNCCN(CCCS(=O)(=O)O)CCNCC1`, for which the melting point lay in the range of 279 to 281 °C.
`C1CNCCNCCNCCN1` [Cyclen, reference compound]: the IC50 turned out to be 13300 ± 2670 µM in data set [1] (setting [10]), 11500 ± 4410 µM in data set [2] (setting [10]), 9710 ± 2710 µM in data set [3] (setting [10]) and 13800 ± 2180 µM in data set [4] (setting [10]).
The compound `COc1ccc2[nH]c(C(=O)N3CC(CCl)c4c3cc(O)c3ncccc43)cc2c1` (centres unmarked) yielded a melting point of 186 to 189 °C.
For the compound `COc1cc2cc(C(=O)N3CC(CCl)c4c3cc(O)c3ncccc43)[nH]c2c(OC)c1OC` (centres unmarked) [Compound 18a, 1-(Chloromethyl)-5-hydroxy-3-[(5,6,7-trimethoxyindol-2-yl)carbonyl]-2,3-dihydro-1H-pyrrolo[3,2-f]quinoline], the IC50 in data set [1] (setting [9]) stood at 0.00014 ± 2.2e-05 µM; in data set [2] (Homo sapiens, SK-OV-3, 4 h) it was 0.00025 ± 3.7e-05 µM; in [3] (Mus musculus, EMT6, 4 h), 5.1e-05 ± 8e-06 µM; in [7] (anoxic, read-out: IC50 A549 wt/s anoxic) it was 0.05 ± 0.014 nM; in data set [7] (oxic, read-out: IC50 A549 wt/s oxic), 0.05 ± 0.016 nM; in [8] (anoxic, read-out: IC50 SKOV3 anoxic), 0.00035 ± 9.3e-05 µM. In addition, the IC50 stood at 0.00025 ± 3.7e-05 µM in data set [8] (oxic, read-out: IC50 SKOV3 oxic) and 7e-05 ± 1.5e-05 µM in data set [4] (Cricetulus griseus, UV4, 4 h). Moreover, the “activation by endogenous enzymes under hypoxia, in words” value in data set [6] is recorded as “not activated by endogenous enzymes under hypoxic conditions”. For the same compound, in data set [5], the cytotoxicity in words entry is given as “exceptionally cytotoxic”. In addition, the “HCR A549 wt/s (hypoxic cytotoxicity ratio)” value in [7] (setting [11]) is given as 0.79 ± 0.35(2). Moreover, the “HCR SKOV3 (hypoxic cytotoxicity ratio)” value in data set [8] (setting [11]) is 0.61(1).
The compound `COc1cc2cc(C(=O)N3CC(CCl)c4c3cc(NCCN)c3ccccc43)[nH]c2c(OC)c1OC.Cl.Cl` (centres unmarked) [Compound 29, 5-(2-aminoethylamino)-3-[(5,6,7-trimethoxyindol-2-yl)carbonyl]-1-(chloromethyl)-1,2-dihydro-3H-benz[e]indole dihydrochloride] showed a melting point greater than 200 °C. Also, the IC50 in data set [1] (setting [9]) came to 0.0058 ± 0.0007 µM. Moreover, the IC50 in [2] (Homo sapiens, SK-OV-3, 4 h) is 0.0062 µM. The IC50 in [3] (Mus musculus, EMT6, 4 h) was determined as 0.0028 µM. Further, in [5], the cytotoxicity in words entry is recorded as “exceptionally cytotoxic”. Besides, in data set [4] (Cricetulus griseus, UV4, 4 h), the IC50 was 0.0041 ± 0.0003 µM.
